Publication PMC11672562, “Synthesis and Antibacterial Activity of New 6″-Modified Tobramycin Derivatives” (Antibiotics, 2024)
In brackets after ≈: the same amount, converted by molar mass. Read-outs that look alike come from different tables or passages of the source.

How the values were obtained:
P. aeruginosa ATCC 27853 = assay: MIC, broth microdilution, P. aeruginosa ATCC 27853; assay type: cell-based
Experimental: The microbial strains used in this study were obtained from the collection of the Gause Institute of New Antibiotics. […] Storage was carried out in accordance with CLSI guidelines.
(§1) Activity was evaluated by determining the minimum inhibitory concentration (MIC) values using the microdilution method in Mueller–Hinton Broth (Beckton and Dickinson, Le Pont-de-Claix, France), in accordance with the standard procedure for assessing the antimicrobial susceptibility of microorganisms.
(§2) The analysis was conducted in 96-well microtiter plates (Medpolymer, Saint Petersburg, Russia). The bacterial inoculum was introduced within 15 min of preparation. […] Microbial growth in the presence of the tested compounds was compared to the growth control (without exposure to the test samples). The MIC was defined as the lowest concentration at which visible microbial growth was inhibited.
(§3) The MIC values of the reference strains were required to fall within the acceptable ranges specified in [30], provided that standard assay conditions were maintained.

[1] = system: resistant clinical isolates of P. aeruginosa; assay: MIC against resistant clinical isolates of P. aeruginosa; assay type: cell-based; settings: Pseudomonas aeruginosa, P. aeruginosa strain
Experimental: (§4) The microbial strains used in this study were obtained from the collection of the Gause Institute of New Antibiotics. […] Storage was carried out in accordance with CLSI guidelines. Prior to experimentation, the bacterial strains were revived from cryopreservation by inoculating them onto trypticase soy agar (Becton, Dickinson, France) and incubating at (36 ± 1) °C for 16–24 h. Individual morphologically homogeneous colonies were then suspended in sterile physiological saline, and the turbidity of the suspension was adjusted to 0.5 McFarland units using a DEN-1 spectrophotometer (Biosan, Riga, Latvia), which corresponds to a concentration of 1.5 × 10^8 CFU/mL.
(§5) The samples were dissolved in sterile distilled water or dimethyl sulfoxide (DMSO), depending on the physicochemical properties of the compounds under investigation, to a concentration of 10,000 µg/mL.
as §1, §2

[2] = system: E. coli S30 Extract System, firefly luciferase synthesis; assay: Cell-free translation inhibition assay (firefly luciferase synthesis); assay type: biochemical; settings: final concentration of 2 μM; water = 100
Experimental: The inhibitory effects of the tested compounds on in vitro firefly luciferase synthesis were evaluated using the E. coli S30 Extract System for Linear Templates (Promega, Madison, WI, USA), as described previously. Briefly, reaction mixtures with a total volume of 5 μL were prepared, containing 0.1 mM of a mixture of all canonical amino acids, 4 U of RiboLock RNase Inhibitor (Thermo Fisher Scientific, Waltham, MA, USA), and 2 μM of the tested compounds. After pre-incubation at room temperature for 5 min, 100 ng of in vitro-transcribed firefly luciferase mRNA was added. The mixtures were then incubated at 37 °C for 20 min. After incubation, each reaction was supplemented with 5 μL of Bright-Glo™ reagent (Promega, Madison, WI, USA), and chemiluminescence was measured using a VICTOR X5 Multilabel Plate Reader (PerkinElmer, Waltham, MA, USA). The luminescence values were normalized to the negative control (water), which was assigned 100% activity.

[3] = system: E. coli JW5503 kanS EF-G P610T; assay: MIC in LB medium, aminoglycoside-resistant mutant EF-G P610T; assay type: cell-based; settings: 18 h
Experimental: (§6) The determination of the minimum inhibitory concentration (MIC) was performed on three strains from the working collection of MSU: E. coli JW5503 [34], which lacked a kanamycin resistance cassette removed as per the method outlined in [39], and two strains derived from this strain through in vivo selection with kanamycin. The latter strains harbored P610T and P610L substitutions in the fusA gene. For the MIC determination, 100 μL (rows 2–11) and 200 μL (row 1) of LB liquid medium containing a 1:1000 dilution of overnight culture was added to each well of a 96-well transparent plate. Subsequently, 2 μL of a 50 μg/mL antibiotic solution was introduced into the first row, and serial two-fold dilutions were performed across each horizontal row, decreasing the antibiotic concentration incrementally. The final two rows were designated as controls: row 12 contained LB medium without cells or antibiotics, and row 11 contained cells without antibiotics. Following 18 h of incubation at 37 °C with constant agitation, the optical density at 590 nm (A590) was measured using a Victor X5 2030 spectrofluorometer (PerkinElmer, Waltham, MA, USA). The MIC was defined as the antibiotic concentration in the first well where no cell growth occurred. Each experiment was conducted in triplicate for all tested antibiotics.

E. coli JW5503 kanS = assay: MIC in LB medium, E. coli JW5503 kanS; assay type: cell-based; settings: 18 h
Experimental: as §6

[4] = system: E. coli JW5503 kanS EF-G P610L; assay: MIC in LB medium, aminoglycoside-resistant mutant EF-G P610L; assay type: cell-based; settings: 18 h
Experimental: as §6

[5] = system: E. coli JW5503 transformed with pJC27 plasmids; assay: Translation accuracy reporter (mutant β-galactosidase, X-Gal staining); assay type: cell-based; settings: 4a,b, 6a,b and tobramycin 50 mg/mL; streptomycin, kanamycin 5 mg/mL; rifampicin 1 mg/mL
Text: It is known that tobramycin inhibits protein biosynthesis by the blocking of initiation and inducing translation errors. We have tested whether the new tobramycin derivatives 4a,b and 6a,b retain the ability to induce translation errors. This assay uses an E. coli strain with a plasmid construct that encodes beta-galactosidase in such a way that a functional protein is only synthesized in the presence of translation errors. If the mechanism of action of the antibiotic is related to the translation errors, we observe indigo blue staining along the edge of the inhibition zone because functional b-galactosidase degrades the substrate X-Gal. As a result, if the antibiotic causes translation errors, blue staining forms around the edge of the inhibition zone. […] According to this, an introduction at the 6″-position of the aminoalkylamino or guanidinoalkylamino residues of tobramycin retains an original mechanism of aminoglycoside’s antibacterial activity affecting the protein synthesis.
To qualitatively evaluate translation accuracy in the presence of antibiotics, E. coli JW5503 [34] (kanamycin resistance cassette removed as per) transformed with pJC27 plasmids was utilized. The plasmids encode the β-galactosidase gene containing a mutation in its active center (E537: GAA→GAC/GGG), alongside a control plasmid without the mutation. Active β-galactosidase synthesis could only occur if translation errors were introduced. Petri dishes (9 cm) containing 20 mL of solid LB agar (1.5%) supplemented with chloramphenicol (11.3 μg/mL) and X-Gal (80 μg/mL) were prepared. A secondary layer comprising 3.5 mL of LB agar (0.6%), supplemented with 11.3 μg/mL chloramphenicol and 0.5 mL of liquid culture (A600~1.0), was added and allowed to solidify. Antibiotics were applied to the plates in 1 μL aliquots at the following concentrations: 50 mg/mL for 4a, 4b, 6a, 6b, and tobramycin; 5 mg/mL for streptomycin and kanamycin; and 1 mg/mL for rifampicin. Plates were incubated at 37 °C for 18 h. […] Results were documented using a Samsung Galaxy Tab A71 camera.

E. coli ATCC 25922 = assay: MIC, broth microdilution, E. coli ATCC 25922; assay type: cell-based
Experimental: as §4, §5, §1, §2, §3

M. smegmatis ATCC 607 = assay: MIC, broth microdilution, M. smegmatis ATCC 607; assay type: cell-based; settings: Table 1
Experimental: as §4, §5, §1, §2

E. coli JW5503 = assay: MIC, broth microdilution, E. coli JW5503; assay type: cell-based; settings: E. coli JW5503; Table 1
Experimental: as §4, §5, §1, §2

S. aureus ATCC 29213 = assay: MIC, broth microdilution, S. aureus ATCC 29213; assay type: cell-based
Experimental: as §4, §5, §1, §2, §3

[6] = quality control, must fall in acceptable ranges of [30]

## C[C@H]1[C@H](NC(=O)/C(=N\OC(C)(C)C(=O)O)c2csc(N)n2)C(=O)N1S(=O)(=O)O [Aztreonam, aztreonam, reference compound]
P. aeruginosa ATCC 27853; Pseudomonas aeruginosa, ATCC27853, P. aeruginosa ATCC 27853, Table 2, read-out: MIC
  MIC: 4 µg/mL (≈ 9.19 µM)
[1]; Table 2 column 3, head prints 27853
  MIC: 16 µg/mL (≈ 36.7 µM)
[1]; Table 2 column 4, head prints 27853
  MIC: 8 µg/mL (≈ 18.4 µM)
[1]; Table 2 column 5, head prints 27853
  MIC: 32 µg/mL (≈ 73.5 µM)
[1]; Table 2 column 6, head prints 27853
  MIC: 16 µg/mL (≈ 36.7 µM)
[1]; Table 2 column 7, head prints 27853
  MIC: 16 µg/mL (≈ 36.7 µM)

## CC[C@H]1OC(=O)[C@H](C)[C@@H](O[C@H]2C[C@@](C)(OC)[C@@H](O)[C@H](C)O2)[C@H](C)[C@@H](O[C@@H]2O[C@H](C)C[C@H](N(C)C)[C@H]2O)[C@](C)(O)C[C@@H](C)C(=O)[C@H](C)[C@@H](O)[C@]1(C)O [Erythromycin, erythromycin, reference compound]
[2]
  % control signal (relative maximal rate of firefly luciferase accumulation in vitro): 0.8%
[3]; Escherichia coli
  MIC: 2 µg/mL (≈ 2.73 µM)
E. coli JW5503 kanS; Escherichia coli, JW5503KANS
  MIC: 2 µg/mL (≈ 2.73 µM)
[4]; Escherichia coli
  MIC: 2 µg/mL (≈ 2.73 µM)

## CO[C@H]1/C=C/O[C@@]2(C)Oc3c(C)c(O)c4c(O)c(c(/C=N/N5CCN(C)CC5)c(O)c4c3C2=O)NC(=O)/C(C)=C\C=C\[C@H](C)[C@H](O)[C@@H](C)[C@@H](O)[C@@H](C)[C@H](OC(C)=O)[C@@H]1C [Rifampicin, rifampicin, reference compound]
[2]
  % control signal (relative maximal rate of firefly luciferase accumulation in vitro): 87%
[3]; Escherichia coli
  MIC: 5 µg/mL (≈ 6.08 µM)
E. coli JW5503 kanS; Escherichia coli, JW5503KANS
  MIC: 5 µg/mL (≈ 6.08 µM)
[4]; Escherichia coli
  MIC: 5 µg/mL (≈ 6.08 µM)
[5]
  induction of translation errors (blue staining at edge of inhibition zone): does not induce ribosomal errors

## [H]/N=C(/N)N[C@H]1[C@H](O)[C@@H](O)[C@H](O[C@@H]2O[C@@H](C)[C@](O)(C=O)[C@H]2O[C@@H]2O[C@@H](CO)[C@H](O)[C@@H](O)[C@@H]2NC)[C@@H](N/C(N)=N\[H])[C@@H]1O [streptomycin, reference compound]
[5]
  induction of translation errors (blue staining at edge of inhibition zone): acted as miscoding inductors

## kanamycin A [reference compound]
[2]
  % control signal (relative maximal rate of firefly luciferase accumulation in vitro): 0.1%
E. coli ATCC 25922; Table 1
  MIC: 1 µg/mL
E. coli ATCC 25922; [6]
  MIC of control antibiotic: 1 to 4 µg/mL
[3]; E. coli JW5503 kanS EF-G P610T, LB medium
  MIC: 80 µg/mL
E. coli JW5503 kanS; E. coli JW5503 kanS, LB medium
  MIC: 5 µg/mL
[4]; E. coli JW5503 kanS EF-G P610L, LB medium
  MIC: 80 µg/mL
M. smegmatis ATCC 607
  MIC: 0.125 µg/mL
P. aeruginosa ATCC 27853; P. aeruginosa ATCC 27853, Table 1
  MIC: >32 µg/mL
P. aeruginosa ATCC 27853; P. aeruginosa ATCC 27853, Table 1, listed as kanamycin
  MIC: > 32 µg/mL
E. coli JW5503
  MIC: 1 µg/mL
S. aureus ATCC 29213; Table 1
  MIC: 0.5 µg/mL
S. aureus ATCC 29213; [6]
  MIC of control antibiotic: 1 to 4 µg/mL
[5]
  induction of translation errors (blue staining at edge of inhibition zone): acted as miscoding inductors
